Laboratory results taken from patent publication US4605744A, “Imidazole derivatives” (Hoffmann-La Roche Inc., priority 1985, dated 1986).
In brackets after ≈: the same amount, converted by molar mass. Structures can show the parent of a compound that is named as a salt. Where two headings read alike, the source gives them in different places.

Legend:
[1] = tested on: E. coli 257; experiment: In vitro antibacterial activity (MIC, Mueller-Hinton broth); type: cell-based
Method: Drug dilutions are prepared in Mueller-Hinton broth ranging from 128 to 0.008 μg/ml. The diluted agents are dispensed in 100 μl amounts into the wells of a 96-well tray and used immediately or frozen at -10° to -70° C. until needed. Using an automated inoculator, 1.5 μl of a 10^-2 dilution of an overnight culture is added to each well of the tray. The tops of the trays are then sealed using transparent tape and incubated overnight at 37° C. The trays are examined with the aid of a viewer. The lowest concentration at which no growth is observed is considered to be the minimum inhibitory concentration (MIC).

[2] = tested on: C. freundii 8ASM; experiment: In vitro antibacterial activity (MIC); type: cell-based; settings: Citrobacter freundii, 8ASM, C. freundii 8ASM; read-out: MIC
In short: (§1)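 Mueller-Hinton broth carries the compound at 128–0.008 μg/ml; diluted drug may be used fresh or stored frozen at -10° to -70° C before use. Wells are seeded with a 10^-2 dilution of overnight culture and incubated overnight at 37° C.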

[3] = tested on: E. aerogenes 503-478; experiment: In vitro antibacterial activity (MIC); type: cell-based; settings: Klebsiella aerogenes, 503478, E. aerogenes 503-478; read-out: MIC
In short: as §1

[4] = tested on: E. aerogenes 8; experiment: In vitro antibacterial activity (MIC); type: cell-based
In short: as §1

[5] = tested on: E. cloacae 214; experiment: In vitro antibacterial activity (MIC); type: cell-based
In short: as §1

[6] = tested on: E. cloacae 24; experiment: In vitro antibacterial activity (MIC); type: cell-based
In short: as §1

[7] = tested on: E. cloacae 5699; experiment: In vitro antibacterial activity (MIC); type: cell-based; settings: Enterobacter cloacae, 5699, E. cloacae 5699; read-out: MIC
In short: as §1

[8] = tested on: E. cloacae 6951; experiment: In vitro antibacterial activity (MIC); type: cell-based; settings: Enterobacter cloacae, 6951, E. cloacae 6951; read-out: MIC
In short: as §1

[9] = tested on: E. cloacae 9570A; experiment: In vitro antibacterial activity (MIC); type: cell-based; settings: Enterobacter cloacae
In short: as §1

[10] = tested on: E. coli 503-455; experiment: In vitro antibacterial activity (MIC); type: cell-based; settings: Escherichia coli, 503455, E. coli 503-455; read-out: MIC
In short: as §1

[11] = tested on: K. pneumoniae 8357; experiment: In vitro antibacterial activity (MIC); type: cell-based; settings: Klebsiella pneumoniae, 8357, K. pneumoniae 8357; read-out: MIC
In short: as §1

[12] = tested on: P. aeruginosa 5700; experiment: In vitro antibacterial activity (MIC); type: cell-based
In short: as §1

[13] = tested on: P. aeruginosa B; experiment: In vitro antibacterial activity (MIC); type: cell-based; settings: Pseudomonas aeruginosa, read-out: MIC
In short: as §1

[14] = tested on: P. aeruginosa POW 151; experiment: In vitro antibacterial activity (MIC); type: cell-based; settings: Pseudomonas aeruginosa, POW151
In short: as §1

[15] = tested on: P. mirabilis 190; experiment: In vitro antibacterial activity (MIC); type: cell-based
In short: as §1

[16] = tested on: P. mirabilis 90; experiment: In vitro antibacterial activity (MIC); type: cell-based
In short: as §1

[17] = tested on: S. aureus 1059B; experiment: In vitro antibacterial activity (MIC); type: cell-based; settings: Staphylococcus aureus
In short: as §1

[18] = tested on: S. aureus Giorgio; experiment: In vitro antibacterial activity (MIC); type: cell-based; settings: Staphylococcus aureus
In short: as §1

[19] = tested on: S. faecalis C1; experiment: In vitro antibacterial activity (MIC); type: cell-based
In short: as §1

[20] = tested on: S. marcescens S2; experiment: In vitro antibacterial activity (MIC); type: cell-based; settings: Serratia marcescens
In short: as §1

[21] = tested on: S. marcescens S3; experiment: In vitro antibacterial activity (MIC); type: cell-based; settings: Serratia marcescens
In short: as §1

[22] = tested on: S. marcescens S5; experiment: In vitro antibacterial activity (MIC); type: cell-based
In short: as §1

[23] = tested on: S. pneumoniae 6301; experiment: In vitro antibacterial activity (MIC); type: cell-based
In short: as §1

[24] = tested on: E. coli 257; experiment: In vivo antibacterial activity (PD50); settings: Escherichia coli, 257, sc
[25] = tested on: P. aeruginosa 6720; experiment: In vivo antibacterial activity (PD50); settings: Pseudomonas aeruginosa, 6720, sc, 2 treatments
[26] = tested on: P. aeruginosa 8710; experiment: In vivo antibacterial activity (PD50); settings: Pseudomonas aeruginosa, 8710, sc, 2 treatments
[27] = tested on: P. aeruginosa 6799; experiment: In vivo antibacterial activity (PD50); settings: Pseudomonas aeruginosa, 6799, sc, sc, 2 treatments, read-out: PD50
[28] = tested on: K. pneumoniae HE7; experiment: In vivo antibacterial activity (PD50); settings: Klebsiella pneumoniae, HE7, sc, 2 treatments
[29] = tested on: E. cloacae 4633; experiment: In vivo activity alone and in combination (PD50, FIC); settings: Enterobacter cloacae, 4633; sc; alone; read-out: PD50 (alone)
Method: (§2) In Tables 9-14, the results of the in vivo activity against certain microorganisms of compounds I, M and N as given. […] The results in these Tables and the PD50 's were determined by the procedure set forth on page 160 in Beskid et al., Antimicrobial Agents and Chemotherapy, Vol. 20, No. 2 pp. 159-167 (Aug. 1981) for "in vivo studies".
(§3) In the Tables, the fractional inhibitory concentration index (FIC) for synergistic combination of a compound of this invention (X) with known antibiotic compound (Y) is determined by the following formula:
(§4) FIC=(PD50 (X combination)/PD50 (X alone)+(PD50 (Y
(§5) combination)/PD50 (Y alone)
(§6) An FIC of ≤0.60 is indicative of synergy. The synergy rating in the Tables is as follows:
(§7) In the combination, the parts are parts by weight, i.e. 10 to 1 is 10 parts by weight to 1 part by weight.

[30] = tested on: E. coli BC5524; experiment: as above; settings: Escherichia coli, BC5524; sc; alone; read-out: PD50 (alone)
Method: as §2, §3, §4, §5, §6, §7

[31] = tested on: K. pneumoniae 39; experiment: as above; settings: Klebsiella pneumoniae, 39, sc, alone
Method: as §2, §3, §4, §5, §6, §7

[32] = tested on: K. pneumoniae 503-990A; experiment: as above; settings: Klebsiella pneumoniae, 503990A, sc, alone
Method: as §2, §3, §4, §5, §6, §7

[33] = tested on: K. pneumoniae R2296; experiment: as above; settings: Klebsiella pneumoniae, sc, alone
Method: as §2, §3, §4, §5, §6, §7

[34] = tested on: S. marcescens SM; experiment: In vivo antibacterial activity (PD50); settings: sc
[35] = tested on: S. pneumoniae 6302; experiment: In vivo antibacterial activity (PD50); settings: Streptococcus pneumoniae, 6302, sc
[36] = Klebsiella aerogenes, E. aerogenes 8, read-out: MIC
[37] = Proteus mirabilis, 90, P. mirabilis 90, read-out: MIC
[38] = S. marcescens S2, read-out: MIC
[39] = S. marcescens S3, read-out: MIC
[40] = Serratia marcescens, S5, S. marcescens S5, read-out: MIC
[41] = Streptococcus pneumoniae, 6301, S. pneumoniae 6301, read-out: MIC
[42] = challenge >10^4 LD50s, 1 treatment, Table 10
[43] = challenge 10 LD50s, Table 10, read-out: PD50
[44] = challenge 562 LD50s, Table 10, read-out: PD50

CC1(C)S[C@@H]2[C@H](N=CN3CCC(CC4=NCCN4)CC3)C(=O)N2[C@H]1C(=O)O [M, [2S-(2alpha,5alpha,6beta)]-6-[[[4-[(4,5-dihydro-1H-imidazol-2-yl)methyl]-1-piperidinyl]methylene]amino]-3,3-dimethyl-7-oxo-4-thia-1-azabicyclo[3.2.0]heptane-2-carboxylic acid hydrochloride]
MIC ([1]; Escherichia coli, 257, E. coli 257, read-out: MIC): 0.125 µg/mL
MIC [2]: 0.062 µg/mL
MIC [3]: 4 µg/mL
MIC [4, 36]: 32 µg/mL
MIC ([5]; Enterobacter cloacae, 214, E. cloacae 214, read-out: MIC): 0.25 µg/mL
MIC ([6]; Enterobacter cloacae, 24, E. cloacae 24, read-out: MIC): 0.5 µg/mL
MIC [7]: 0.25 µg/mL
MIC [8]: 32 µg/mL
MIC ([9]; read-out: MIC): 0.25 µg/mL
MIC [10]: 2 µg/mL
MIC [11]: 1 µg/mL
MIC ([12]; Pseudomonas aeruginosa, 5700, P. aeruginosa 5700, read-out: MIC): 0.125 µg/mL
MIC [13]: 0.25 µg/mL
MIC [14]: > 128 µg/mL
MIC ([15]; Proteus mirabilis, 190, P. mirabilis 190, read-out: MIC): 0.5 µg/mL
MIC [16, 37]: 0.5 µg/mL
MIC ([17]; read-out: MIC): 32 µg/mL
MIC ([18]; S. aureus Giorgio, read-out: MIC): 2 µg/mL
MIC ([19]; Enterococcus faecalis, S. faecalis C1, read-out: MIC): 32 µg/mL
MIC [20, 38]: 0.25 µg/mL
MIC [21, 39]: 0.125 µg/mL
MIC [22, 40]: 1 µg/mL
MIC [23, 41]: 1 µg/mL
ED50 [24, 42]: 1.5 mg/kg
ED50 ([25]; challenge 3511 LD50s, Table 10): 29 mg/kg
ED50 [26, 43]: 54 mg/kg
ED50 [26, 44]: 59 mg/kg
ED50 ([27]; challenge 48 LD50s, Table 10): > 250 mg/kg
ED50 ([28]; challenge 750 LD50s, Table 10): 71 mg/kg
ED50 [29]: 34 mg/kg
ED50 [30]: 80 mg/kg
ED50 [31]: 5 mg/kg
ED50 [32]: 9.4 mg/kg
ED50 [33]: > 250 mg/kg

CC1(C)S[C@@H]2[C@H](/N=C/N3CCCCCC3)C(=O)N2[C@H]1C(=O)O [Amdinocillin, amdinocillin, reference compound]
MIC ([1]; Escherichia coli, 257): 0.125 µg/mL (≈ 0.384 µM)
MIC ([4]; Klebsiella aerogenes, 8, E. aerogenes 8): 128 µg/mL (≈ 393 µM)
MIC [4, 36]: 0.25 µg/mL (≈ 0.768 µM)
MIC ([5]; Enterobacter cloacae, 214): 0.125 µg/mL (≈ 0.384 µM)
MIC ([6]; Enterobacter cloacae, 24): 0.125 µg/mL (≈ 0.384 µM)
MIC ([9]; 9570A): 0.125 µg/mL (≈ 0.384 µM)
MIC ([9]; read-out: MIC): 0.062 µg/mL (≈ 0.191 µM)
MIC ([12]; P. aeruginosa 5700): > 128 µg/mL
MIC ([12]; Pseudomonas aeruginosa, 5700, P. aeruginosa 5700): 128 µg/mL (≈ 393 µM)
MIC [13]: 0.062 µg/mL (≈ 0.191 µM)
MIC [14]: > 128 µg/mL
MIC ([15]; Proteus mirabilis, 190): 0.125 µg/mL (≈ 0.384 µM)
MIC ([16]; P. mirabilis 90): 0.5 µg/mL (≈ 1.54 µM)
MIC [16, 37]: 0.25 µg/mL (≈ 0.768 µM)
MIC ([17]; 1059B): 128 µg/mL (≈ 393 µM)
MIC ([17]; read-out: MIC): 64 µg/mL (≈ 197 µM)
MIC [18]: 32 µg/mL (≈ 98.3 µM)
MIC ([19]; Enterococcus faecalis, C1, S. faecalis C1): > 128 µg/mL
MIC ([19]; S. faecalis C1): 128 µg/mL (≈ 393 µM)
MIC ([20]; S2, S. marcescens S2): 0.125 µg/mL (≈ 0.384 µM)
MIC [20, 38]: 0.25 µg/mL (≈ 0.768 µM)
MIC ([21]; S3, S. marcescens S3): 0.125 µg/mL (≈ 0.384 µM)
MIC [21, 39]: 0.062 µg/mL (≈ 0.191 µM)
MIC ([22]; S. marcescens S5): 0.5 µg/mL (≈ 1.54 µM)
MIC [22, 40]: 1 µg/mL (≈ 3.07 µM)
MIC ([23]; S. pneumoniae 6301): 1 µg/mL (≈ 3.07 µM)
MIC [23, 41]: 2 µg/mL (≈ 6.15 µM)
ED50 ([24]; Table 9): < 0.025 mg/kg
ED50 [24, 42]: < 1 mg/kg
ED50 ([24]; challenge >10^4 LD50s, 1 treatment, Table 11): < 2 mg/kg
ED50 ([34]; Serratia marcescens, Table 9): > 250 mg/kg
PD50 ([34]; challenge 489 LD50s, 2 treatments, Table 11): > 250 mg/kg
ED50 ([35]; Table 9): 204 mg/kg
ED50 ([35]; challenge 1000 LD50s, 1 treatment, Table 11): > 250 mg/kg
ED50 ([25]; challenge 35 LD50s, Table 11): > 250 mg/kg
ED50 ([25]; challenge 3511 LD50s, Table 10): > 250 mg/kg
ED50 [26, 43]: > 250 mg/kg
ED50 [26, 44]: > 250 mg/kg
ED50 ([26]; challenge >10^4 LD50s, Table 11, read-out: PD50): > 250 mg/kg
ED50 ([27]; challenge 48 LD50s, Table 10): 117 mg/kg
ED50 ([27]; challenge 71 LD50s, Table 11): > 250 mg/kg
ED50 ([28]; challenge 750 LD50s, Table 10): > 250 mg/kg
ED50 ([28]; challenge 1000 LD50s, Table 11): > 250 mg/kg
